Consider 8 compounds from DBAASP.

≈ marks a conversion by molar mass, not a printed value.

Test systems include Escherichia coli O111; Botrytis cinerea; Cladosporium herbarum; Alternaria alternata; Bacillus cereus AS1.126; Escherichia coli AS1.349.
Test in all cases: ≥ marks a high value that may be exact or a test limit, other limits are often not marked, values filed in µg/mL are converted to µM
The test system of experiment [1] is Bacillus subtilis ATCC 6633.
Experiment [2] has as its system Escherichia coli ATCC 25922.
The test system of experiment [3] is Staphylococcus aureus FDA 209P.
The test system of experiment [4] is Pseudomonas syringae pv. syringae DSM 10604.
The subject of experiment [5] is Clavibacter michiganensis subsp. michiganensis DSM 46294.
Experiment [6] relates to Pseudomonas syringae pv. tomato DC3000.
Experiment [7] has as its system Xanthomonas vesicatoria DSM 50861.
Experiment [8] relates to Pseudomonas corrugata DSM 7228.
Experiment [9] relates to Pectobacterium carotovorum subsp. carotovorum DSM 30168.
In experiment [10] the test system is Staphylococcus aureus 90857.
The subject of experiment [11] is Enterococcus faecalis ATCC 29212.
For experiment [12], the system named is Escherichia coli ATCC 27325.
The subject of experiment [13] is Staphylococcus aureus ATCC 15752.
Experiment [14] deals with Pseudomonas aeruginosa ATCC 27853.
In experiment [15] the test system is Bacillus subtilis KCTC 3038.
Experiment [16] deals with Saccharomyces cerevisiae ATCC 44774.
The subject of experiment [17] is Micrococcus luteus ATCC 10240.
Experiment [18] has as its system Candida albicans ATCC 10231.
The test system of experiment [19] is Cryptococcus neoformans ATCC 34881.
The subject of experiment [20] is Salmonella typhimurium KCTC 2370.
Experiment [21] deals with Lactococcus lactis AS1.1690.
Experiment [22] has as its system Enterococcus faecium CGMCC 1.2334.
In experiment [23] the test system is Pseudomonas aeruginosa CGMCC 1.860.
Experiment [24] has as its system Staphylococcus aureus AS1.72.
The subject of experiment [25] is Enterococcus faecalis CGMCC 1.595.
The subject of experiment [26] is Cronobacter sakazakii DPC 6440.
For experiment [27], the system named is Listeria monocytogenes LO28.

Usually MIC stands for the smallest concentration in the dilution series that meets the test's criterion for growth inhibition. `CC[C@H](C)[C@H](NC(=O)[C@@H](NC(=O)CN)C(C)C)C(=O)N[C@H](C(=O)N[C@@H](CC(=O)O)C(=O)N[C@@H](C)C(=O)N[C@@H](CC(C)C)C(=O)N[C@@H](CCCCN)C(=O)NCC(=O)N[C@@H](C)C(=O)N[C@@H](C)C(=O)N[C@@H](CCCCN)C(=O)N[C@H](C(=O)N[C@H](C(=O)N[C@@H](C)C(=O)N[C@@H](C)C(=O)N[C@@H](CCC(=O)O)C(=O)N[C@@H](CC(C)C)C(=O)N[C@@H](CC(C)C)C(=O)N[C@@H](CCCN=C(N)N)C(=O)N[C@@H](CCCCN)C(=O)N[C@@H](C)C(=O)N[C@@H](Cc1cnc[nH]1)C(=O)N[C@H]1CSSC[C@@H](C(=O)O)NC(=O)[C@H](CO)NC(=O)[C@H](CC(N)=O)NC(=O)[C@H]([C@@H](C)O)NC(=O)[C@H](CC(C)C)NC(=O)[C@H](CCCCN)NC1=O)C(C)C)[C@@H](C)O)[C@@H](C)O` [GVITDALKGAAKTVAAELLRKAHCKLTNSC]: the minimal inhibitory concentration (MIC) in experiment [1] was found to be 20.8 µM (≈ 64 µg/mL); in experiment [2] it was 2.66 µM (≈ 8.19 µg/mL); in the experiment with Escherichia coli O111, 2.66 µM (≈ 8.19 µg/mL); in experiment [3], 5.35 µM (≈ 16.5 µg/mL).
Turning to `CC[C@H](C)[C@H](NC(=O)[C@@H](NC(=O)CNC(=O)[C@H](C)NC(=O)[C@H](CCSC)NC(=O)[C@@H](NC(=O)CNC(=O)[C@H](Cc1ccccc1)NC(=O)[C@@H](NC(=O)[C@H](CC(C)C)NC(=O)[C@@H](NC(=O)[C@H](CC(C)C)NC(=O)[C@H](CCCCN)NC(=O)[C@H](CCCN=C(N)N)NC(=O)[C@@H](N)CCCCN)[C@@H](C)O)C(C)C)C(C)C)C(C)C)C(=O)NCC(=O)N[C@H](C(=O)N[C@@H](CCCCN)C(=O)N[C@@H](CCCCN)C(=O)N[C@@H](CCCN=C(N)N)C(N)=O)[C@@H](C)O` [KRKLTLVFGVMAGVIGTKKR], the MIC in experiment [4] is 18.2 µM (≈ 40 µg/mL); in the experiment with Botrytis cinerea it was not below 45.4 µM; in [5], 9.08 µM (≈ 20 µg/mL); with Cladosporium herbarum, not below 45.4 µM; in [6], 18.2 µM (≈ 40 µg/mL); in the experiment on Alternaria alternata, not below 45.4 µM. In addition, the MIC in experiment [7], in [8] and in experiment [9] was 18.2 µM (≈ 40 µg/mL) throughout.
Regarding `CC(C)C[C@H](NC(=O)[C@H](CC(C)C)NC(=O)[C@H](CCCCN)NC(=O)[C@H](CCCCN)NC(=O)[C@H](CC(C)C)NC(=O)[C@H](CC(C)C)NC(=O)[C@H](CCCCN)NC(=O)[C@H](CCCCN)NC(=O)[C@H](CC(C)C)NC(=O)[C@H](C)NC(=O)[C@H](CCCCN)NC(=O)[C@H](CC(C)C)NC(=O)[C@@H](N)CC(C)C)C(N)=O` [LLKALKKLLKKLL], the minimal inhibitory concentration (MIC) in experiment [4] is 6.57 µM (≈ 9.99 µg/mL); in the experiment with Botrytis cinerea, not below 65.7 µM; in experiment [5], 6.57 µM (≈ 9.99 µg/mL); against Cladosporium herbarum it was 26.3 µM (≈ 40 µg/mL); in experiment [6] it was 6.57 µM (≈ 9.99 µg/mL); in [10] it was 1.5 µM (≈ 2.28 µg/mL). The MIC against Alternaria alternata was not below 65.7 µM; in [7], 3.29 µM (≈ 5 µg/mL); in experiment [8], 26.3 µM (≈ 40 µg/mL); in experiment [9] it was 26.3 µM (≈ 40 µg/mL).
Turning to `CC(C)[C@H](NC(=O)CNC(=O)[C@H](CCC(N)=O)NC(=O)[C@@H](NC(=O)[C@@H](NC(=O)[C@@H]1CCCN1C(=O)[C@H](CCCN=C(N)N)NC(=O)[C@@H](NC(=O)CNC(=O)[C@@H](N)CCCN=C(N)N)C(C)C)C(C)C)C(C)C)C(=O)N[C@@H](CCCCN)C(=O)N[C@@H](CCC(=O)O)C(=O)N[C@@H](CCCCN)C(=O)N[C@H](C(=O)N[C@@H](CCCN=C(N)N)C(=O)O)C(C)C` [RGVRPVVQGVKEKVR], the MIC in experiment [11] is more than 37.5 µM; in experiment [12], not below 37.5 µM; in experiment [13] it was not below 37.5 µM; in [14] it was more than 37.5 µM; in experiment [15], not below 37.5 µM; in experiment [16], not below 37.5 µM. Besides, the MIC in experiment [17] was not below 37.5 µM; in [18], more than 37.5 µM; in [19], not below 37.5 µM; in experiment [20], not below 37.5 µM.
In the case of `CC(C)C[C@H](NC(=O)[C@H](CC(C)C)NC(=O)[C@H](CCCCN)NC(=O)[C@@H](NC(=O)[C@H](CCCN=C(N)N)NC(=O)[C@H](CCCCN)NC(=O)[C@H](CCCCN)NC(=O)[C@@H](N)CCCN=C(N)N)C(C)C)C(=O)N[C@@H](CCCCN)C(=O)N[C@@H](CCCN=C(N)N)C(=O)N[C@@H](CC(C)C)C(=O)N[C@H](C(N)=O)C(C)C` [RKKRVKLLKRLV], the MIC was 1.63 µM (≈ 2.5 µg/mL) in experiment [4]; 6.51 µM (≈ 9.99 µg/mL) in experiment [5]; 3.25 µM (≈ 5 µg/mL) in experiment [6]; not below 62.5 µM in experiment [10]; 3.25 µM (≈ 5 µg/mL) in experiment [7]; 0.325 µM (≈ 0.5 µg/mL) in experiment [8]. In experiment [9], this compound displayed an MIC of 6.51 µM (≈ 9.99 µg/mL).
As to `NC(N)=NCCC[C@H](NC(=O)[C@H](Cc1cnc[nH]1)NC(=O)[C@H](Cc1c[nH]c2ccccc12)NC(=O)[C@H](Cc1ccccc1)NC(=O)[C@H](CCCN=C(N)N)NC(=O)[C@@H](N)CCCN=C(N)N)C(=O)O` [RRFWHR], the minimal inhibitory concentration (MIC) (in [21]; in experiment [22]; in experiment [23]; in experiment [24]; in the experiment on Bacillus cereus AS1.126; with Escherichia coli AS1.349) was not below 100 µM throughout. In experiment [25], this compound displayed an MIC not below 100 µM.
Turning to `CC[C@H](C)[C@H](NC(=O)[C@@H](N)Cc1c[nH]c2ccccc12)C(=O)N[C@@H](CCC(N)=O)C(=O)N1CCC[C@H]1C(=O)N[C@@H](CCCCN)C(=O)N[C@H](C(=O)N[C@@H](CCCCN)C(=O)N[C@H](C(=O)N[C@@H](C)C(=O)N1CCC[C@H]1C(=O)N[C@@H](Cc1ccc(O)cc1)C(=O)N[C@H](C(=O)N[C@@H](CCCN=C(N)N)C(=O)N[C@@H](Cc1ccc(O)cc1)C(=O)N[C@@H](CC(C)C)C(=O)O)C(C)C)C(C)C)[C@@H](C)O` [WIQPKTKVAPYVRYL], the values for the MIC in experiment [26] and in [27] were not below 78.1 µM and 19.5 µM (≈ 36.4 µg/mL), respectively.
Turning to `CC[C@H](C)[C@H](NC(=O)[C@@H](N)Cc1c[nH]c2ccccc12)C(=O)N[C@@H](CCC(N)=O)C(=O)N1CCC[C@H]1C(=O)N[C@@H](CCCCN)C(=O)N[C@H](C(=O)N[C@@H](CCCCN)C(=O)N[C@H](C(=O)N[C@H](C(=O)N1CCC[C@H]1C(=O)N[C@@H](C)C(=O)N[C@H](C(=O)N[C@@H](CCCN=C(N)N)C(=O)N[C@@H](Cc1ccc(O)cc1)C(=O)N[C@@H](CC(C)C)C(=O)O)C(C)C)[C@@H](C)CC)C(C)C)[C@@H](C)O` [WIQPKTKVIPAVRYL], the MIC was not below 78.1 µM in [26] and not below 39.1 µM in experiment [27].
